Residues, ends and D or L forms follow the SMILES beside them.
Target: T1, human Ang2 (Homo sapiens, UniProt O15123)
T1 construct: purchased R&D Systems 623-AN-025/CF
T1 sequence (O15123 19-496): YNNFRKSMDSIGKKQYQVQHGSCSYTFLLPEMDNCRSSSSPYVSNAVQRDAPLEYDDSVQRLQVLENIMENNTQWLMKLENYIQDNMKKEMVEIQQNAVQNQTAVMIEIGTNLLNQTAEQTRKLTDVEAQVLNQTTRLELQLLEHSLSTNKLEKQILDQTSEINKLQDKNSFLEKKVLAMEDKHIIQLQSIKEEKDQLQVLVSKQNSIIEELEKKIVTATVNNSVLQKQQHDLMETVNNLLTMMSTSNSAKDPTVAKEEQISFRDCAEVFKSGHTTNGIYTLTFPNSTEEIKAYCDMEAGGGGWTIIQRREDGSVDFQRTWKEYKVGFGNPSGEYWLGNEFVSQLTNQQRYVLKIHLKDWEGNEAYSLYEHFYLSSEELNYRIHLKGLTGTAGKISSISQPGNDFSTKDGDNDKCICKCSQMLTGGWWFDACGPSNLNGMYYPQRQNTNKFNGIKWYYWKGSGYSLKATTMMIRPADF
Assay: BIACORE (SPR) binding of peptides to immobilized recombinant Ang2
Settings: CM5 chip, 10-50 μM peptide
Excerpt: The capability of CGEN-H2 [SEQ ID NO: 1], CGEN-H3 [SEQ ID NO: 2], CGEN-A8 [SEQ ID NO: 3], CGEN-H7 [SEQ ID NO: 4], CGEN-G4 [SEQ ID NO: 5], CGEN-G6 [SEQ ID NO: 6], CGEN-F9 [SEQ ID NO: 7], CGEN-F12 [SEQ ID NO: 8], CGEN-C6-30 [SEQ ID NO: 9], CGEN-All [SEQ ID NO: 10], and CGEN-G2 [SEQ ID NO: 11] to specifically bind to recombinant Ang1, Ang2, and Ang4 was investigated using the BIACORE technology, measuring protein-protein interaction and binding affinity (Wendler et al 2005, Anal Bioanal Chem, 381: 1056-1064). The technology is based on surface plasmon resonance (SPR), an optical phenomenon that enables detection of unlabeled interactants in real time. The SPR-based biosensors can be used in determination of active concentration, screening and characterization in terms of both affinity and kinetics.
Peptide-protein binding was analyzed using surface plasmon resonance. Analysis of the to interaction between CGEN-H2 [SEQ ID NO: 1], CGEN-H3 [SEQ ID NO: 2], CGEN-A8 [SEQ ID NO: 3], CGEN-H7 [SEQ ID NO: 4], CGEN-G4 [SEQ ID NO: 5], CGEN-G6 [SEQ ID NO: 6], CGEN-F9 [SEQ ID NO: 7], CGEN-F12 [SEQ ID NO: 8], CGEN-C6 [SEQ ID NO: 9], CGEN-A11 [SEQ ID NO: 10], and CGEN-G2 [SEQ ID NO: 11] peptides and recombinant human Ang1 carrier-free (R&D Systems, Cat#923-AN-025/CF, Lot#FHW1507031), human Ang2 carrier-free (R&D Systems, Cat#623-AN-025/CF, Lot#BNO0457121), and human Ang4 carrier-free (R&D Systems, Cat#964-AN-025/CF, Lot#ELM025121) was conducted using the BIAcore biosensor (Pharmacia Biosensor, Uppsala, Sweden). The recombinant Ang1, Ang2, and Ang4 were immobilized directly to a CM5 sensor chip. Solutions containing 10-50 μM of CGEN-H2 [SEQ ID NO: 1], CGEN-H3 [SEQ ID NO: 2], CGEN-A8 [SEQ ID NO: 3], CGEN-H7 [SEQ ID NO: 4], CGEN-G4 [SEQ ID NO: 5], CGEN-G6 [SEQ ID NO: 6], CGEN-F9 [SEQ ID NO: 7], CGEN-F12 [SEQ ID NO: 8], CGEN-C6 [SEQ ID NO: 9], CGEN-A11 [SEQ ID NO: 10], and CGEN-G2 [SEQ ID NO: 11] peptides were injected into the sample chamber of the BIACORE device at a rate of […] and the interaction was monitored using surface plasmon resonance.
Solutions containing different concentrations of CGEN-G6 [SEQ ID NO: 6], CGEN-F9 [SEQ ID NO: 7], CGEN-F12 [SEQ ID NO: 8], CGEN-A11 [SEQ ID NO: 10], and CGEN-G2 [SEQ ID NO: 11] peptides (as indicated in Table 2) were injected into the sample chamber of the BIACORE device at a rate of […] and the interaction was monitored using surface plasmon resonance. As a background, the solutions were also injected onto an empty flow cell with no immobilized ligand and the in binding levels achieved were subtracted. Data was analyzed using BIAevaluation software. The affinity constant of the interaction between CGEN-G6 [SEQ ID NO: 6], CGEN-F9 [SEQ ID NO: 7], CGEN-F12 [SEQ ID NO: 8], CGEN-C6 [SEQ ID NO: 9], CGEN-A11 [SEQ ID NO: 10], and CGEN-G2 [SEQ ID NO: 11] and Ang1, Ang2, or Ang4 was determined by direct kinetic analysis. The 1:1 Langmuir binding model was used to fit kinetic data.
Table 2 summarizes results of analysis of CGEN-G6 [SEQ ID NO: 6], CGEN-F9 [SEQ ID NO: 7], CGEN-F12 [SEQ ID NO: 8], CGEN-A11 [SEQ ID NO: 10], and CGEN-G2 [SEQ ID NO: 11] interaction with Ang1, Ang2, or Ang4. Kinetic measurements were done at the indicated concentration range, and they are presented as KD (M). CGEN-F12 [SEQ ID NO: 8] bound to Ang1 and Ang4 with high affinity. The specificity of this binding is not clear.

Binding to immobilized Ang2 (in words), capable of binding:
CC(=O)N[C@@H](CCC(=O)O)C(=O)N[C@H](C(=O)N[C@@H](Cc1ccccc1)C(=O)N[C@@H](CC(C)C)C(=O)N[C@@H](CO)C(=O)N[C@H](C(=O)N[C@@H](CC(N)=O)C(=O)N[C@@H](CCCCN)C(=O)N[C@@H](CC(C)C)C(=O)N[C@@H](CCC(=O)O)C(=O)N[C@@H](CC(N)=O)C(=O)N[C@@H](CCC(N)=O)C(N)=O)[C@@H](C)O)[C@@H](C)O [CGEN-A11, ETFLSTNKLENQ] (Ac-ETFLSTNKLENQ-NH2)
CC[C@H](C)[C@H](NC(=O)[C@H](C)NC(=O)[C@H](CCCNC(=N)N)NC(=O)[C@H](CCC(=O)O)NC(=O)[C@H](CC(C)C)NC(=O)[C@H](CCCCN)NC(=O)[C@H](CCCCN)NC(=O)[C@H](CC(C)C)NC(=O)[C@H](Cc1c[nH]c2ccccc12)NC(=O)[C@H](CCC(N)=O)NC(=O)[C@@H](NC(=O)[C@H](CC(N)=O)NC(=O)[C@H](CC(N)=O)NC(=O)[C@H](CCC(N)=O)NC(=O)[C@H](CC(C)C)NC(=O)[C@H](C)NC(=O)[C@H](CCC(N)=O)NC(=O)[C@H](CCC(=O)O)NC(=O)[C@H](CC(C)C)NC(=O)[C@H](CCC(N)=O)NC(=O)[C@H](CCCCN)NC(=O)[C@@H](NC(=O)[C@H](CCC(N)=O)NC(=O)[C@H](CCC(N)=O)NC(=O)[C@@H](NC(C)=O)[C@@H](C)O)C(C)C)[C@@H](C)O)C(=O)N[C@@H](CCCCN)C(=O)N[C@H](C(=O)N[C@H](C(=O)N[C@@H](CC(C)C)C(N)=O)[C@@H](C)CC)[C@@H](C)O [CGEN-G2] (Ac-TQQVKQLEQALQNNTQWLKKLERAIKTIL-NH2)
CSCC[C@H](NC(=O)[C@H](CC(C)C)NC(=O)[C@H](CC(=O)O)NC(C)=O)C(=O)N[C@@H](CCC(=O)O)C(=O)N[C@H](C(=O)N[C@H](C(=O)N[C@@H](CC(N)=O)C(=O)N[C@@H](CC(N)=O)C(=O)N[C@@H](CC(C)C)C(=O)N[C@@H](CC(C)C)C(=O)N[C@H](C(=O)N[C@@H](CCSC)C(=O)N[C@@H](CCSC)C(=O)N[C@@H](CO)C(=O)N[C@H](C(=O)N[C@@H](CO)C(=O)N[C@@H](CC(N)=O)C(=O)N[C@@H](CO)C(=O)N[C@@H](C)C(=O)N[C@@H](CCCCN)C(=O)N[C@@H](CC(=O)O)C(N)=O)[C@@H](C)O)[C@@H](C)O)C(C)C)[C@@H](C)O [CGEN-G6] (Ac-DLMETVNNLLTMMSTSNSAKD-NH2)

— patent US9255132B2, “Angiopoietin derived peptides” (Compugen Ltd., priority 2008, dated 2016)
